Reference: PMC3368272, “The host-seeking inhibitory peptide, Aea-HP-1, is made in the male accessory gland and transferred to the female during copulation” (Peptides, 2012)
Square brackets hold non-standard residues; d marks the D form. Peptide text beside a SMILES is read from it. Hyp = O=C(O)[C@@H]1C[C@@H](O)CN1; pGlu = O=C1CC[C@@H](C(=O)O)N1

Assays:
[1] = test system: virgin A. aegypti females; test: Mating rejection after injection into the hemocoel of virgin females; assay type: in vivo, Aedes aegypti; conditions: 0.1–1 μg injected into the hemocoel of virgin A. aegypti females; data not presented
Source text: Transplantation of MAGs, or injection of gland extracts, into female A. aegypti can elicit a variety of post-mating responses including refractoriness to re-mating and inhibition of host-seeking and biting behavior [13]. […] This failure might be due to lack of accessibility and the known rapid catabolism of Aea-HP-1 in the hemolymph. D. melanogaster SP has wide-ranging effects on physiology and behavior some of which are mediated primarily through activation of the SP/MIP receptor that is expressed in sensory neurons of the uterus. The D. melanogaster SP receptor and its A. aegypti orthologue are also strongly activated by myoinhibitory peptides (MIPs), a family of peptides that are found in species from different insect orders and are considered to be the ancestral ligands for these receptors [[19,33,41]]. The receptors are also activated by unidentified ligands present in whole body extract of adult A. aegypti. Although Aea-HP-1 has no obvious structural similarity to either SP or MIP, the promiscuity of the SP/MIP receptor led us to consider the possibility that the head peptide might also be an agonist of the MIP receptor.

A. aegypti SPR = test: Ligand-mediated receptor activation, CHO-K1 cells expressing aequorin; assay type: cell-based, Aedes aegypti; conditions: A. aegypti SPR in CHO cells with aequorin and Gαqi; up to 10 μM; n = 4
Experimental: (§1) Ligand-mediated receptor activation was measured using an established expression system employing CHO-K1 cells expressing the Ca^2+ reporter aequorin [42]. The construction of the expression constructs for D. melanogaster sex peptide receptor (SPR) and A. aegypti SPR and the measurement of the luminescent signals have been reported previously.
(§2) Fig. 6 Aea-HP-1 is not an active agonist for SPRs from D. melanogaster (A) and A. aegypti (B). Luminescent responses of CHO cells expressing SPR, aequorin and a chimaeric G-protein, Gαqi, and treated with varying concentrations of Aea-HP-1 and SP. Each data point is mean ± s.d. (n = 4).

[2] = molecular target: T1, D. melanogaster sex peptide receptor (SPR) (Drosophila melanogaster, UniProt Q8SWR3); test: as above; assay type: cell-based; conditions: D. melanogaster SPR in CHO cells with aequorin and Gαqi; up to 10 μM; n = 4
T1 construct: expressed in transfected cells; host or cells: CHO-K1 cells co-expressing aequorin and chimaeric G-protein Gαqi
T1 sequence (Q8SWR3 1-435): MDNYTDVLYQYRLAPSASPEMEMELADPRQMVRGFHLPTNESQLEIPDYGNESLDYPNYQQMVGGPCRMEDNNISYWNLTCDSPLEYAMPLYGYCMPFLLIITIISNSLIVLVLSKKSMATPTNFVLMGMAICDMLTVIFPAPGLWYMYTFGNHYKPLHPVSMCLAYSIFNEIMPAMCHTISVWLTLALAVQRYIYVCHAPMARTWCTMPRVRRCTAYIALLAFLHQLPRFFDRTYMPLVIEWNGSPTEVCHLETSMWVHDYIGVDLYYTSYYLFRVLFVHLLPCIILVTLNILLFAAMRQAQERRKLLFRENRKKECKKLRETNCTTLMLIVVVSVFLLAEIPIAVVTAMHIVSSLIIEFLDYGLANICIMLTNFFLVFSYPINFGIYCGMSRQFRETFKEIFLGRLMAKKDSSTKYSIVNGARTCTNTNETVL
Experimental: as §1, §2

[3] = set-up: species or system Aedes aegypti; conditions: in vivo
Experimental: Tissues were dissected from adult mosquitoes in phosphate buffered saline (PBS, MP Biomedicals, Cambridge, UK) and collected into acidified methanol (86%, v/v, aqueous methanol and 5% v/v glacial acetic acid). MAGs and male seminal vesicles (SVs) (5 pairs per 100 μl) were typically prepared for analysis by infusing whole tissues in acidified methanol for 30 min, then centrifuging for 10 min at 13,000 rpm in a bench-top microcentrifuge, retaining the supernatant. Homogenization was avoided to provide a cleaner sample for analysis. […]
Mosquito tissues were analyzed for Aea-HP-1 by subjecting either acidified methanol extracts or intact tissues to MALDI/TOF-MS analysis. […]
MALDI/TOF-MS was used to analyze methanol extracts for the presence of Aea-HP-1 in the reproductive tract (uterus, spermathecae, bursa copulatrix, oviduct, but not the ovary) of individual virgin and post-mated females obtained by introducing a single female into a cage of 50 males until mating was observed (<5 min). […] In contrast, the molecular ions for Aea-HP-1 (m/z, 1227.9) and Aea-HP-3 (m/z, 1211.9) were detected in methanol extracts of tissues from nine out of thirteen post-copulated females. Extracts were also analyzed quantitatively by ELISA using synthetic Aea-HP-1 as a standard and the results were compared to the amount of material found in extracts of MAGs dissected from virgin males. […]

[4] = test system: isolated oviduct and hindgut of female mosquitoes; conditions: female A. aegypti tissues; cited from earlier work
Source text: (§3) Aea-HP-1 has been tested for myogenic and behavior modifying activity in A. aegypti.

non-öogenic females = conditions: cited from earlier work
Source text: as §3

[5] = mosquito hemolymph, after 30 min; cited from earlier work
Source text: as §3

[6] = test system: virgin D. melanogaster females; test: Post-mating response (receptivity) after injection into virgin females; assay type: in vivo, Drosophila melanogaster; conditions: injected into the hemocoel of virgin D. melanogaster females; receptivity assayed 5 h after injection with naive Canton-S males
Experimental: Injections of either Aea-HP-1 or SP into the abdomen of virgin D. melanogaster females were performed as described previously. After injection, females were transferred to individual food vials and were tested after 5 h for receptivity with a naive Canton S male.
Receptivity of virgin females assayed 5 h after injection with either synthetic peptides (Aea-HP-1 or SP) or Ringer's solution alone. Wild type W1118 females were injected and assayed with naïve Canton-S males. Numbers in parenthesis indicate numbers of animal assayed. n.s., p > 0.05; ***p < 0.0001, one-way ANOVA (Tukey post-test) compared with Ringer treatment.

For CC(C)C[C@H](NC(=O)[C@H](CO)NC(=O)[C@@H]1C[C@@H](O)CN1C(=O)[C@@H]1CCCN1C(=O)[C@H](CCCNC(=N)N)NC(=O)[C@@H]1CCC(=O)N1)C(=O)N[C@@H](CCCCN)C(=O)N[C@H](C(=O)N[C@@H](CCCNC(=N)N)C(=O)N[C@@H](Cc1ccccc1)C(N)=O)[C@@H](C)O [Aea-HP-1, pERPhPSLKTRFamide] ([pGlu]RP[Hyp]SLKTRF-NH2), the “induction of mating rejection” value [1] was “not been able to show that Aea-HP-1 can induce mating rejection”, the “activation of SP/MIP receptor (luminescent response)” value (A. aegypti SPR) was “did not activate” and the “activation of SP/MIP receptor (luminescent response)” value [2] was “did not activate”. For the same molecule, the “persistence in the female reproductive tract after copulation” value [3] was “less than 2 h”, the “stimulation of contractions of isolated oviduct and hindgut” value [4] was “did not stimulate contractions” and the “effect on host-seeking behavior” value (non-öogenic females; injected into female A. aegypti) was “inhibiting host-seeking behavior”. The “duration of reduction in host-seeking” value (non-öogenic females; injected into non-öogenic female A. aegypti) was “up to 5 h”, the “peptide remaining in the circulation” value [5] was “around 17%” and the “rejection of male advances (post-mating response)” value [6] was “did not elicit rejection of male advances”.
